Assay results published in patent publication US20140179681A1, “METHODS AND COMPOSITIONS OF TARGETED DRUG DEVELOPMENT” (priority 2010, published 2014).
Where a name gives a salt, the structure may show the parent alone. Read-outs that look alike come from different tables or passages of the source.

What was measured:
[1] = tested on: epithelial carcinoma A431 cell line; assay: MTT Cell Proliferation Assay, A431 cells; assay type: cell-based; conditions: for MTT Assay IC50(A431/MDBK): ratio in parentheses: ratio MDBK IC50 / A431 IC50 (selectivity)
Excerpt: (§1) The following example describes the MTT Cell Proliferation Assay.
(§2) The MTT Cell Proliferation Assay is a colorimetric assay system that measures the reduction of the tetrazolium salt MTT (3-(4,5-dimethylthiazol-2-yl)-2,5-diphenyltetrazolium bromide) into insoluble formazan crystals, produced by the mitochondria of viable cells. […] The color can then be quantified by spectrophotometric means. Among the applications for the method are drug sensitivity, cytotoxicity, response to growth factors, and cell activation. The reduction of tetrazolium salts is now recognized as a safe, accurate alternative to radiometric testing.
(§3) Two replicates on each cell plate and 2 duplicate plates gave 4 individual replicates of each concentration, in each cell line. Concentrations were diluted in 100% DMSO from 25 mM stocks.
(§4) Twelve 96 well plates of each cell line were plated. Plating was done by dislodging cells as in passage protocol, counting on a hemocytometer, re-suspending in standard growth media, and plating using a multichannel pippetor.
(§5) 16 μl of 25 mM stock+34 μl DMSO=8 mM starting concentrations, and serial diluted as with test compounds in same plate. […] Two replicates of each concentrations was run on each cell plate. All compound addition and cell treatments were done using aseptic technique under a laminar flow aseptic hood.
(§6) Control: 0.5% DMSO in treatment media was used as the control.
(§7) MTT dye (Thiazolyl Blue Tetrazolium Bromide, Sigma cat #M5655) stock was prepared in bulk and stored at 4° C. for use: 5 mgs/ml sterile PDS, shielded from light. 4 ul of this stock per 100 uls treatment media per well was used.
(§8) Plates were incubated overnight prior to treatment, with treatment day=Day 0. Compound treatments were prepared prior to washing cells to minimize time cells were dry at room temperature after final aspiration. Compounds were diluted in 100% DMSO in 96 well polypropylene plates: 40 μl 25 mM stock+10 μl DMSO=20 mM; 20 μl of 20 mM+30 μl DMSO=8 mM; 20 μl of 8 mM+30 μl DMSO=3.2 mM; 20 μl of 3.2 mM+30 μl DMSO=1.3 mM; 20 μl of 1.3 mM+30 μl DMSO=0.51 mM.
(§9) 5.0 μl/ml were added to treatment media, in sterile, 2.2 ml deep well plates=0.5% dmso final. Ten μl of each dmso concentration was added to 2.0 ml of treatment media and then mixed using a 1200 μl multichannel pipettor. Cell plates were treated from the deep well plates. Treatment media was standard growth media containing 0.5% FBS and standard additions. This reduced FBS concentration allowed for a slower growth rate in cells.
(§10) Media was aspirated from cell plates, and washed with 200 μl/well sterile PBS. Aspirated PBS wash, and cell plates were treated with 200 μl of compound/treatment media per well, and incubated at 37° C., 5% CO2 for 3 days.
(§11) Prior to harvesting, visual observations were made under an inverted microscope. Plates were harvested by: aspirating the growth media; adding back MTT dye/100 μl treatment media; and incubating plates at 37° C. for 1 hour. MTT dye was aspirated. 100 μl/well dmso was added, and then shaken on a Bellco plate shaker for 5 minutes, at 4.5 setting.
(§12) Plates were read in a Tecan Sunrize UV plate reader, at 560 nm. Settings: Read mode, Outside Normal 2 sec; Shake settle time 3 sec. Data is reported as % inhibition, calculated for individual plates using control values from that plate.

[2] = tested on: MDBK line; assay: MTT Cell Proliferation Assay, MDBK cells; assay type: cell-based, bovine
Excerpt: as §1, §2, §3, §4, §5, §6, §7, §8, §9, §10, §11, §12

[3] = target: T1, EGFR (Homo sapiens, UniProt P00533); assay: EGFR in-cell Western (ICW) screening protocol (EGFR inhibition assay); assay type: cell-based; design: ICW 1 / ICW 2 / ICW Avg: unit not given here; conditions: for ICW Avg / ICW 1 / ICW 2: ICW assay; for ICW Avg: average of runs 1 and 2; for ICW 1: run 1; for ICW 2: run 2; for ICW Screen: Table 11; for ICW Screen / ICW assay: % Inhibition of EGF dependent EGFR phosphorylation in A431 cells, compound 125 μM in assay; for ICW assay: Table 10
T1 construct: host or cells: A431
Protocol: The following example describes general EGFR in-cell Western (ICW) screening protocol. Methods are according to Chen et al. (2005) Analytical Biochemistry 338, 136-142 (incorporated herein by reference), except as otherwise noted.
Cell Plates: A431 cells (ATCC # CRL-1555) were grown in Dulbecco's Modified Eagle Medium (DMEM; ATCC #30-2002) supplemented with 10% fetal bovine serum, 105 units/ml pen/strep (Invitrogen #15140155) and 2.1 mM L-glutamine (ATCC #30-2214). Cells were seeded into 96 well tissue culture plates (BD Falcon #353948) at a density of 30,000 cells per well and incubated at 37° C. with 5% CO2 overnight. Two cell plates were prepared for each compound plate.
Serum Starvation: The cells were serum starved prior to compound addition. The media was removed by aspiration and the cells washed with PBS (200 μl/well; Invitrogen #20012-027). The PBS was removed by aspiration and replaced with 200 μl of DMEM (ATCC #30-2002) supplemented with 105 units/ml pen/strep (Invitrogen #15140155) and 2.1 mM 1-glutamine (ATCC #30-2214). The cell plates were incubated at 37° C./5% CO2 for 2 hours.
Compound Plate Preparation: The test compounds were solvated in 100% DMSO (Sigma #472301-2L) at a concentration of 25 mM. Compounds found not to be completely soluble in 100% DMSO at 25 mM were diluted to 10 mM with 100% DMSO and TFA (Fluka #91699) added to a final concentration of 0.2%. 40 μl of test compound was added to the appropriate well of a 96 well plate (Falcon #351190). As controls, 6 μM EGFR kinase inhibitor PD168393 (EMD/Calbiochem #513033) in 100% DMSO and DMSO alone were added to various wells. Prepared compound plates were stored at RT prior to use and at 4° C. long term.
Compound Dilution Plate Preparation: 250 μl of DMEM supplemented with 1 mg/ml BSA (Sigma A3059-10G) was added to the appropriate wells of a 96 well plate to prepare the compound dilution plates. Using a multichannel pipettor, 1.25 μl of compound from the compound plate was transferred into the compound dilution plate.
Compound Addition: The starve media was removed from the cell plates by aspiration. Using a multichannel pipettor, the compound dilution plates were mixed by pipetting up and down three times. 50 μl of mixed, diluted compound was added to each of two rows/columns on each of two cell plates. The cell plates with compound were incubated at 37° C./5% CO2 for 4 hours.
EGF Addition: 20 ng/ml EGF (Upstate #01-107) was prepared in DMEM supplemented with 1 mg/ml BSA. 50 μl of 20 or 0 ng/ml EGF was added to the appropriate wells without the removal of compound. The compound and EGF were mixed by pipetting up and down three times. The plates were incubated at 37° C./5% CO2 for 10 min. In some screening assays the final concentration of EGF used for simulation was 6.6, or 12.5 ng/ml rather than 10 ng/ml.
Fixation and Triton Washing: The EGF+compound was removed by aspiration and 150 μl of freshly prepared Fixation Solution (1×PBS, Sigma P3813-10PK, and 4% Formaldehyde, Pierce #28908) was immediately added. The plates were incubated at RT for 20 min without shaking. The Fixation Solution was removed by aspiration and the plates washed four times with 200 μl each of Triton Wash Solution (1×PBS, Sigma P3813-10PK, and 0.1% Triton X-100, T8787-50ML) for 5 min with gentle shaking.
Blocking and Probing: Following the last Triton Wash, the plates were blocked for 1.5 h at RT with shaking using 150 μl of Odyssey Blocking Buffer (LI-COR #927-40000). The block was removed by aspiration and 50 μl of diluted primary Ab mix was added. The plates were incubated at 4° C. overnight with gentle shaking. The plates were washed five times with 200 μl of PBST (1×PBS, Sigma P3813-10PK, and 0.1% Tween-20, Sigma P9416-50ML) for 5 min each with shaking 50 μl of diluted secondary Ab mix was added and the plates incubated at RT for 1 h with shaking. The plates were washed 5× with 200 μl of PBST for 5 min each with shaking. […]

[4] = Homo sapiens, A-431, A431 cells, first value of cell, read-out: MTT Assay IC50(A431/MDBK): A431
[5] = Bos taurus, MDBK, MDBK cells, second value of cell, read-out: MTT Assay IC50(A431/MDBK): MDBK
[6] = Homo sapiens, A-431, 72 h, Table 10, first of x/y(ratio): A431, three day treatment, unit not printed (doses in μM), read-out: MTT assay (first value)
[7] = Bos taurus, MDBK, 72 h, Table 10, second of x/y(ratio): MDBK, three day treatment, unit not printed (doses in μM), read-out: MTT assay (second value)
[8] = Homo sapiens, A-431, first value of 'a/b (c)', taken as A431 cells, read-out: MTT Screen, first value of cell
[9] = Bos taurus, MDBK, second value of 'a/b (c)', taken as MDBK cells, read-out: MTT Screen, second value of cell

T1 sequence (P00533 25-1210): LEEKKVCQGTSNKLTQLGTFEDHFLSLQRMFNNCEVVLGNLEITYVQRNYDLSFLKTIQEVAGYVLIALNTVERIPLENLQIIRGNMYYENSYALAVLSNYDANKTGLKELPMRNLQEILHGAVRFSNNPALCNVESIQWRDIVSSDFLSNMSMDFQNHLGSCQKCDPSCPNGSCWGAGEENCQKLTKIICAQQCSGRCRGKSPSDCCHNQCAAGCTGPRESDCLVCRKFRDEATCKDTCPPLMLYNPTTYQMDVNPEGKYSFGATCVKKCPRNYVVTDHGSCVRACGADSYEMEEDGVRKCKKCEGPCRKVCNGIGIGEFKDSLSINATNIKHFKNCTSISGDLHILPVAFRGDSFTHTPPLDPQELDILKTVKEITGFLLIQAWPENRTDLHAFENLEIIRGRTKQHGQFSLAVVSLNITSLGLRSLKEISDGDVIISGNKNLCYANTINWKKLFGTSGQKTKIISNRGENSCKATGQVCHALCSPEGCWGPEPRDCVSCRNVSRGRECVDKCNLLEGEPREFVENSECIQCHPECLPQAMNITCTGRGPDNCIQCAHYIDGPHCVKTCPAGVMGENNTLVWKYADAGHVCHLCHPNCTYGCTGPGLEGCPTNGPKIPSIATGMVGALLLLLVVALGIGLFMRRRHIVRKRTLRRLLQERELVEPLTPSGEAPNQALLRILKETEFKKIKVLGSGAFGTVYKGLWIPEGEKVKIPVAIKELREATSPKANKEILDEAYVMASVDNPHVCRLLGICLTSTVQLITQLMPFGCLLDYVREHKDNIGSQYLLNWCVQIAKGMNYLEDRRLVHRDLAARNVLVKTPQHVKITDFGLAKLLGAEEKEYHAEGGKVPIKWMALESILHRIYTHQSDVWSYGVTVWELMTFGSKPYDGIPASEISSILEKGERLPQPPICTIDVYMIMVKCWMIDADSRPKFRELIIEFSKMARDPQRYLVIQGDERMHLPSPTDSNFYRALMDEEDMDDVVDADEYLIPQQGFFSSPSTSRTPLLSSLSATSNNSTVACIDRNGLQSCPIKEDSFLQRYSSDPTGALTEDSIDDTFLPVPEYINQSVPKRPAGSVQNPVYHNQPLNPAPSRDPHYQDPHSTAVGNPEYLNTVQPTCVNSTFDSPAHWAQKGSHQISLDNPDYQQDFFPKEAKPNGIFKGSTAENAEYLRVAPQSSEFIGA

SMILES	IC50 [1, 4] [µM]	MTT Assay IC50(A431/MDBK): ratio in parentheses [1]	IC50 [2, 5] [µM]	ICW Avg [3]	ICW 1 [3]	ICW 2 [3]	also measured
Cc1ccc2nc(Nc3nc(C)c(CCC(C)C)c(=O)[nH]3)nc(C)c2c1 [12666 + TFA]	14.5	1.18	17.1	36.77	48.16	25.37	–
Cc1c(O)ccc2c(CN3CCN(Cc4ccc5c(c4)OCO5)CC3)cc(=O)oc12 [AD4-10491]	–	–	–	–	–	–	IC50 ([1]; Table 11, first of x/y(ratio): A431, unit not printed (doses in μM), read-out: MTT Screen (first value)): 22.2 µM; IC50 ([2]; Table 11, second of x/y(ratio): MDBK, unit not printed (doses in μM), read-out: MTT Screen (second value)): 40.6 µM; ICW Screen [3]: 29.223
CCOc1ccccc1NC(=S)Nc1ccc(S(=O)(=O)Nc2ccc(Cl)cc2)cc1 [AD4-12521]	–	–	–	–	–	–	IC50 [1, 6]: 6.99 µM; IC50 [2, 7]: 6.54 µM; ICW assay [3]: 45.7824
Cc1cc2nc(Nc3nc(=O)c(C)c(C)[nH]3)nc(C)c2cc1C [12630 + TFA]	11.7	0.75	8.75	26.02	17.06	34.97	–
Cc1ccc(NS(=O)(=O)c2ccc(NC(=S)NC(=O)C3CCC3)cc2)cc1C [AD4-12175]	–	–	–	–	–	–	IC50 ([1]; first value of 'a/b (c)', taken as A431 cells, read-out: MTT Screen, first value of cell): 40 µM; IC50 ([2]; second value of 'a/b (c)', taken as MDBK cells, read-out: MTT Screen, second value of cell): 9.56 µM; ICW Screen (ICW Inhibition) [3]: 42.36
O=c1cc(CN2CCN(Cc3ccc4c(c3)OCO4)CC2)c2cc(Cl)c(O)cc2o1 [AD4-10618]	–	–	–	–	–	–	IC50 ([1]; Homo sapiens, A-431, 72 h, Table 11, first of x/y(ratio): A431, unit not printed (doses in μM), read-out: MTT Screen (first value)): 18.4 µM; MTT Screen (second value) ([2]; Table 11, second of x/y(ratio): MDBK, unit not printed (doses in μM)): non-convergent; ICW Screen [3]: −3.062
CN(c1ccccc1)S(=O)(=O)c1ccc(NC(=S)NC(=O)/C=C/c2ccccc2)cc1 [AD4-12168]	–	–	–	–	–	–	IC50 [1, 8]: 60.5 µM; MTT Screen, first value of cell ([1]; first value of 'a/b (c)', taken as A431 cells): non- conver- gent; IC50 [2, 9]: 19.7 µM; ICW Screen (ICW Inhibition) [3]: 28.819
Cc1ccc2nc(Nc3nc(=O)c(C)c(C)[nH]3)nc(C)c2c1 [12629 + TFA]	12.7	0.85	10.7	25.89	19.83	31.95	–
Cc1ccc(NC(=S)Nc2ccc(S(=O)(=O)Nc3ccc(Cl)c(Cl)c3)cc2)cc1 [AD4-12438]	–	–	–	–	–	–	IC50 [1, 6]: 5.69 µM; IC50 [2, 7]: 5.9 µM; ICW assay [3]: 53.245
COc1ccc2c(C)nc(Nc3nc(C)cc(-c4ccccc4)n3)nc2c1 [compound 12676]	12.9	1.45	18.8	25.81	28.01	23.61	–
Cc1ccc2c(C)nc(Nc3nc4c(c(-c5ccccc5)n3)CCCC4)nc2c1 [compound 11777]	6.6	1.62	10.7	25.87	37.92	13.81	–
COc1ccc(NS(=O)(=O)c2ccc(NC(=S)Nc3ccc(OC)c(OC)c3)cc2)cc1 [AD4-12433]	–	–	–	–	–	–	IC50 [1, 6]: 29.1 µM; IC50 [2, 7]: 38.5 µM; ICW assay [3]: 54.4095
Cc1ccc(NC(=S)Nc2ccc(S(=O)(=O)Nc3cc(Cl)cc(Cl)c3)cc2)cc1C [AD4-12400]	–	–	–	–	–	–	IC50 [1, 6]: 4.05 µM; IC50 [2, 7]: 5.77 µM; ICW assay [3]: 69.4793
COc1ccc(NS(=O)(=O)c2ccc(NC(=S)NC(=O)C3CCCC3)cc2)cc1 [AD4-12119]	–	–	–	–	–	–	IC50 [1, 8]: 18.6 µM; IC50 [2, 9]: 14.6 µM; ICW Screen (ICW Inhibition) [3]: 55.94
COc1ccc(CC(=O)NC(=S)Nc2ccc(S(=O)(=O)NCCc3ccccc3)cc2)cc1 [AD4-11415]	–	–	–	–	–	–	IC50 [1, 8]: 15.7 µM; IC50 [2, 9]: 10.5 µM; ICW Screen (ICW Inhibition) [3]: 35.841
CCCc1cc(=O)[nH]c(Nc2nc(C)c3ccc(OC)cc3n2)n1 [12669 + TFA]	49.3	0.74	36.7	25.42	11.73	39.10	–
